Among the data in patent US10865191B2, “Heterocyclic compounds useful as modulators of TNF alpha” (BRISTOL-MYERS SQUIBB COMPANY, priority 2015, dated 2020) are IC50 values, retold here.

Sequence of TNFα (P01375 77-233 limits assumed): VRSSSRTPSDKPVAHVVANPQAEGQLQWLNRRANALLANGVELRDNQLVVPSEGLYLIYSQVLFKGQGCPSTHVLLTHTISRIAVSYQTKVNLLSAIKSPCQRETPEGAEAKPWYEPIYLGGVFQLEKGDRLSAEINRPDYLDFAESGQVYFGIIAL

The target of the test is TNFα (Homo sapiens, UniProt P01375). As to the kind of experiment: TNF induced HEK-Blue assay (NF-kB-driven secreted alkaline phosphatase reporter). Type of test: cell-based. The note with it: TNFα 0.5 ng/mL, HEK-Blue-CD40L cells, 18 h; read-out: TNF induced HEK-Blue assay IC50 value. The gist of the method:
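HEK-Blue-CD40L cells (NF-kB-driven SEAP reporter), 20,000/well, added after 30 min pre-incubation of compound (0.004–25 μM final) with TNFα 0.5 ng/mL final at 37 °C; 18 h incubation. SEAP read with QUANTI-Blue at 620 nm; IC50 from 4-parameter logistic fit, normalized to unstimulated and stimulated DMSO controls.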
The term IC50 denotes the concentration at which inhibition is half-maximal. Take `C[C@@H](Nc1c(Cl)cnc2ccc(-c3cnc([C@]4(O)CCC[C@H]4O)nc3)cc12)c1ccccc1F` [Example 121, (1R,2R)-1-(5-(3-chloro-4-(((R)-1-(2-fluorophenyl)ethyl)amino)quinolin-6-yl)pyrimidin-2-yl)cyclopentane-1,2-diol]: the IC50 was less than 1000 nM.
The figure for `C=CC(=O)N1CCN(c2ccc(-c3ccc4ncc(Cl)c(N[C@H](C)c5ccccc5F)c4c3)cn2)CC1` [Example 123, (R)-1-(4-(5-(3-chloro-4-((1-(2-fluorophenyl)ethyl)amino)quinolin-6-yl)pyridin-2-yl)piperazin-1-yl)prop-2-en-1-one] is less than 1000 nM; for `C=CC(=O)N(C)c1ncc(-c2ccc3ncc(Cl)c(N[C@H](C)c4ccccc4F)c3c2)cn1` [Example 124, (R)—N-(5-(3-chloro-4-((1-(2-fluorophenyl)ethyl)amino)quinolin-6-yl)pyrimidin-2-yl)-N-methylacrylamide] it is less than 1000 nM.
The result for `CC#CC(=O)N1CCN(c2ccc(-c3ccc4ncc(Cl)c(N[C@H](C)c5ccccc5F)c4c3)cn2)CC1` [Example 125, (R)-1-(4-(5-(3-chloro-4-((1-(2-fluorophenyl)ethyl)amino)quinolin-6-yl)pyridin-2-yl)piperazin-1-yl)but-2-yn-1-one] reads less than 1000 nM.
With `CCC(Nc1c(Cl)cnc2ccc(-c3cnc(C(C)(C)O)nc3)cc12)c1nc(C(O)CO)ccc1F` (stereo not drawn) [Example 127, 1-(6-(1-((3-chloro-6-(2-(2-hydroxypropan-2-yl)pyrimidin-5-yl)quinolin-4-yl)amino)propyl)-5-fluoropyridin-2-yl)ethane-1,2-diol], the 50% inhibitory concentration (IC50) was less than 1000 nM.
The figure for `CCC(Nc1c(Cl)cnc2ccc(-c3cnc(C(C)(C)O)nc3)cc12)c1nc(C(=O)O)ccc1F` (stereo not drawn) [Example 128, 6-(1-((3-chloro-6-(2-(2-hydroxypropan-2-yl)pyrimidin-5-yl)quinolin-4-yl)amino)propyl)-5-fluoropicolinic acid] is 1000 to 10000 nM.
As for `CCC(Nc1c(Cl)cnc2ccc(-c3cnc(C(C)(C)O)nc3)cc12)c1nc(C(N)=O)ccc1F` (stereo not drawn) [Example 129, 6-(1-((3-chloro-6-(2-(2-hydroxypropan-2-yl)pyrimidin-5-yl)quinolin-4-yl)amino)propyl)-5-fluoropicolinamide], the IC50 is less than 1000 nM.
As for `CCC(Nc1c(Cl)cnc2ccc(-c3cnc(C(C)(C)O)nc3)cc12)c1nc(CO)ccc1F` (stereo not drawn) [Example 130, 2-(5-(3-chloro-4-((1-(3-fluoro-6-(hydroxymethyl)pyridin-2-yl)propyl)amino)quinolin-6-yl)pyrimidin-2-yl)propan-2-ol], the IC50 was less than 1000 nM.
The figure for `CC(=O)NC1CCC(O)(c2ncc(-c3ccc4ncc(Cl)c(N[C@H](C)c5ccccc5F)c4c3)cn2)CC1` (stereo partly drawn) [Example 131, (R)—N-(4-(5-(3-chloro-4-((1-(2-fluorophenyl)ethyl)amino)quinolin-6-yl)pyrimidin-2-yl)-4-hydroxycyclohexyl)acetamide] is 1000 to 10000 nM; for `CC(=O)NC1CCC(O)(c2ncc(-c3ccc4ncc(Cl)c(N[C@H](C)c5ccccc5F)c4c3)cn2)CC1` (stereo partly drawn) [Example 132, (R)—N-(4-(5-(3-chloro-4-((1-(2-fluorophenyl)ethyl)amino)quinolin-6-yl)pyrimidin-2-yl)-4-hydroxycyclohexyl)acetamide] it is 1000 to 10000 nM; for `C[C@@H](Nc1c(Cl)cnc2ccc(-c3cnc(C(C)(C)O)nc3)cc12)c1cccc(N2CCOCC2)c1` [Example 136, (R)-2-(5-(3-chloro-4-((1-(3-morpholinophenyl)ethyl)amino)quinolin-6-yl)pyrimidin-2-yl)propan-2-ol] it is less than 1000 nM.
For the molecule `CC(C)(O)c1ncc(-c2ccc3ncc(Cl)c(NCc4ccc(C(F)(F)F)cc4)c3c2)cn1` [Example 145, 2-(5-(3-chloro-4-(4-(trifluoromethyl)benzylamino)quinolin-6-yl)pyrimidin-2-yl)propan-2-ol], the IC50 was in the range of 10000 to 25000 nM.
